Reference: ChEMBL document CHEMBL1201862, “PubChem BioAssay data set” (2004)
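Cultured in 96-well plates, cells were exposed to test compound for 48 hours across five concentrations. GI50 is the concentration that inhibits growth by half.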 Activity calls are given as the source filed them. No stated cut-off is given here; in the data, active = GI50 up to about 1.1 µM and inactive = higher.

Tests used:
Assay in all cases: NCI-60 cell line screen, 48 h
SK-MEL-28 = tested on: SK-MEL-28
OVCAR-3 = tested on: OVCAR-3
ACHN = tested on: ACHN
OVCAR-5 = tested on: OVCAR-5
HOP-92 = tested on: HOP-92
HL-60 = tested on: HL-60
786-0 = tested on: 786-0
SK-MEL-2 = tested on: SK-MEL-2
HOP-62 = tested on: HOP-62
MOLT-4 = tested on: MOLT-4
KM12 = tested on: KM12
DMS-114 = tested on: DMS-114
NCI-H460 = tested on: NCI-H460
K562 = tested on: K562
MDA-MB-231 = tested on: MDA-MB-231
SNB-19 = tested on: SNB-19
NCI/ADR-RES = tested on: NCI/ADR-RES
NCI-H226 = tested on: NCI-H226
UACC-62 = tested on: UACC-62
MDA-N = tested on: MDA-N

SMILES | GI50 (SK-MEL-28) | GI50 (OVCAR-3) | GI50 (ACHN) | GI50 (OVCAR-5) | GI50 (HOP-92) | GI50 (HL-60) | GI50 (786-0) | GI50 (SK-MEL-2) | GI50 (HOP-62) | GI50 (MOLT-4) | GI50 (KM12) | GI50 (DMS-114) | GI50 (NCI-H460) | GI50 (K562) | GI50 (MDA-MB-231) | GI50 (SNB-19) | GI50 (NCI/ADR-RES) | GI50 (NCI-H226) | GI50 (UACC-62) | GI50 (MDA-N)
O=C1/C(=C/c2cccc([N+](=O)[O-])c2)COc2ccc(Br)cc21 | > 100 µM (inactive) | > 100 µM (inactive) | > 100 µM (inactive) | > 100 µM (inactive) | > 100 µM (inactive) | 17.7 µM (inactive) | 90.2 µM (inactive) | > 100 µM (inactive) | > 100 µM (inactive) | 26.9 µM (inactive) | > 100 µM (inactive) | 65.9 µM (inactive) | > 100 µM (inactive) | 22.9 µM (inactive) | – | – | – | – | – | –
O=C(O)CC(Nc1ccccc1)C(=O)O (stereo not given) | > 100 µM (inactive) | > 100 µM (inactive) | > 100 µM (inactive) | > 100 µM (inactive) | > 100 µM (inactive) | > 100 µM (inactive) | > 100 µM (inactive) | > 100 µM (inactive) | > 100 µM (inactive) | > 100 µM (inactive) | > 100 µM (inactive) | – | > 100 µM (inactive) | > 100 µM (inactive) | > 100 µM (inactive) | > 100 µM (inactive) | > 100 µM (inactive) | > 100 µM (inactive) | > 100 µM (inactive) | > 100 µM (inactive)
O=C(Nc1cccs1)c1c(O)[nH]c(=S)[nH]c1=O | > 100 µM (inactive) | > 100 µM (inactive) | > 100 µM (inactive) | > 100 µM (inactive) | > 100 µM (inactive) | – | > 100 µM (inactive) | > 100 µM (inactive) | > 100 µM (inactive) | > 100 µM (inactive) | > 100 µM (inactive) | > 100 µM (inactive) | > 100 µM (inactive) | > 100 µM (inactive) | – | > 100 µM (inactive) | – | > 100 µM (inactive) | > 100 µM (inactive) | –
O=C(CCSC1=NCCCN1)c1ccc(F)cc1 | 18.7 µM (inactive) | 22.9 µM (inactive) | 15.5 µM (inactive) | 15 µM (inactive) | 20.6 µM (inactive) | 10.7 µM (inactive) | 4.02 µM (inactive) | 18.2 µM (inactive) | 27.8 µM (inactive) | 2.62 µM (inactive) | 19.7 µM (inactive) | – | 22 µM (inactive) | 3.13 µM (inactive) | 21.5 µM (inactive) | 22.1 µM (inactive) | 28.1 µM (inactive) | 17.4 µM (inactive) | 17.2 µM (inactive) | 17.3 µM (inactive)
C=CC[C@]1(C2=NC(C)(C)CO2)c2ccccc2-c2ccccc2[C@H]1C(C)=O | 14.2 µM (inactive) | 3.13 µM (inactive) | 12.5 µM (inactive) | 19.9 µM (inactive) | 16.4 µM (inactive) | 3.93 µM (inactive) | 9.71 µM (inactive) | 3.92 µM (inactive) | 0.643 µM (active) | 9.27 µM (inactive) | 5.73 µM (inactive) | – | 6.03 µM (inactive) | 4.91 µM (inactive) | 14.2 µM (inactive) | 11.6 µM (inactive) | 4 µM (inactive) | 14 µM (inactive) | 5.65 µM (inactive) | 2.74 µM (inactive)
CCOC(=O)c1ccn2c(c1)c(C#N)c1nc3ccccc3nc12 | > 100 µM (inactive) | > 100 µM (inactive) | 55.5 µM (inactive) | > 100 µM (inactive) | – | 38.8 µM (inactive) | > 100 µM (inactive) | > 100 µM (inactive) | > 100 µM (inactive) | 18.1 µM (inactive) | 51.6 µM (inactive) | 52.2 µM (inactive) | 28.6 µM (inactive) | 33.9 µM (inactive) | – | 61 µM (inactive) | – | – | 0.908 µM (active) | –
N#CC(=C1CCCCC1)c1nc2ccccc2o1 | > 100 µM (inactive) | 56.5 µM (inactive) | > 100 µM (inactive) | > 100 µM (inactive) | 34.5 µM (inactive) | 35.2 µM (inactive) | > 100 µM (inactive) | > 100 µM (inactive) | > 100 µM (inactive) | > 100 µM (inactive) | 32 µM (inactive) | – | > 100 µM (inactive) | 69.8 µM (inactive) | > 100 µM (inactive) | > 100 µM (inactive) | 40 µM (inactive) | 56.2 µM (inactive) | 68.9 µM (inactive) | 74.5 µM (inactive)
Cc1ccc(C(=O)C(C)N)cc1C (stereo not given) | > 100 µM (inactive) | > 100 µM (inactive) | > 100 µM (inactive) | – | – | – | > 100 µM (inactive) | > 100 µM (inactive) | > 100 µM (inactive) | > 100 µM (inactive) | > 100 µM (inactive) | > 100 µM (inactive) | > 100 µM (inactive) | > 100 µM (inactive) | – | > 100 µM (inactive) | – | > 100 µM (inactive) | > 100 µM (inactive) | –
